Consider eleven compounds from US7056355B2, “Hair dye composition and dyeing method” (Kao Corporation, priority 2002, dated 2006).

Each structure is given as a SMILES string.

A short description of the first series: pKa determination in DMF/water by titration with UV-visible spectra. Type of series: physicochemical. As to conditions: DMF/water (1/1 by volume) solution, dye 2×10^−5 mol/l. As for the experimental part: The pKa value is determined in DMF/water (1/1-mixture, by volume) as follows:
The dye is dissolved in a solution of a DMF/water (1/1; volume ratio) to a final concentration of 2×10^−5 mol/l. After the resulting solution is adjusted to pH 2, using 1.0 mol/l hydrochloric acid, the solution is titrated with an aqueous 1.0 mol/l sodium hydroxide solution. Recording the change of the visible ultra-violet absorption spectrum, the inflection point is determined by regression analysis.
For the compound `COc1ccc(/N=N/C2C(=O)N(c3ccc(S(N)(=O)=O)cc3)N=C2C#N)cc1` [Dye D-15], the pKa (usually the negative logarithm of the acid dissociation constant) was found to be 4.36. Same read-out and setting: the same measure for `N#CC(/N=N/c1ccc(S(N)(=O)=O)cc1)C(=O)c1ccccc1` [Dye D-14]: 5.82. On the same count and under the same terms, the same measure for `COc1ccc(/N=N/C2C(=O)N(c3ccccc3)N=C2C#N)cc1` [Dye D-7]: 4.6; for `Cc1nn2nc(C(C)(C)C)c(/N=N/c3cc(Cl)c(S(N)(=O)=O)cc3Cl)c2[nH]1` [Dye D-17]: 5.92; for `CS(=O)(=O)c1ccc(/N=N/c2ccc(O)c3ccccc23)c(C#N)c1` [Dye D-25]: 6.5. `N#CC1=NN(c2ccccc2)C(=O)C1/N=N/c1ccc(S(N)(=O)=O)cc1` [Dye D-6]: the pKa worked out at 4.2. Still for that read-out and setting: to `CC(=O)Nc1cc(/N=N/c2ccc(S(C)(=O)=O)cc2C#N)c2ccccc2c1O` [Dye D-26] belongs 7.1.

The same series, now with this note: DMF/water (1/1 by volume), dye 2×10^−5 mol/l.
Compound `CCOC(=O)Nc1cc(/N=N/c2ccc(S(C)(=O)=O)cc2C#N)c2c(NS(C)(=O)=O)cccc2c1O` [Dye D-24] returned a pka of 5.09. Still for that read-out and setting: to `CS(=O)(=O)Nc1cccc2c(O)ccc(/N=N/c3ccc([N+](=O)[O-])cc3S(C)(=O)=O)c12` [Dye D-21] belongs 4.32. On the same count and under the same terms, to `N#CC1=NN(c2ccccc2)C(=O)C1/N=N/c1cc(Cl)c(S(N)(=O)=O)cc1Cl` [Dye D-18] belongs 2.86; to `NS(=O)(=O)c1cccc(S(=O)(=O)Nc2cccc3c(O)ccc(/N=N/c4ccc([N+](=O)[O-])cc4)c23)c1` [Dye D-22], 6.34.
